Results taken from patent US4684664A, “Derivatives of β-(4-isocyano-1,2,3,4-diepoxycyclopentyl) acrylic acid” (Kureha Kagaku Kogyo Kabushiki Kaisha, priority 1984, dated 1987).
Values after ≈ are worked out from the molar mass of the structure shown. Read-outs that look alike come from different tables or passages of the source.

Columns and labels:
Assay type in all cases: cell-based
[1] = test system: Staphylococcus aureus FDA 209PJc-1; assay: Antibacterial activity, agar-dilution MIC, organism No. 1; details: Staphylococcus aureus
How it was run: (§1)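 Read-out is the minimum inhibitory concentration, given as μg/ml of the culture medium, obtained by agar dilution using bouillon agar.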

[2] = test system: Staphylococcus aureus Terajima; assay: Antibacterial activity, agar-dilution MIC, organism No. 2; details: Staphylococcus aureus, read-out: Minimum Inhibitory Concentration
How it was run: as §1

[3] = test system: Staphylococcus aureus MS 353; assay: Antibacterial activity, agar-dilution MIC, organism No. 3; details: Staphylococcus aureus
How it was run: as §1

[4] = test system: Streptococcus pyogenes Cook; assay: Antibacterial activity, agar-dilution MIC, organism No. 4; details: Streptococcus pyogenes, read-out: Minimum Inhibitory Concentration
How it was run: as §1

[5] = test system: Escherichia coli NIHJ-JC-2; assay: Antibacterial activity, agar-dilution MIC, organism No. 5; details: Escherichia coli
How it was run: as §1

[6] = test system: Escherichia coli K12 C600 IAM 1264; assay: Antibacterial activity, agar-dilution MIC, organism No. 6; details: Escherichia coli
How it was run: as §1

[7] = test system: Klebsiella pneumoniae PCI-602; assay: Antibacterial activity, agar-dilution MIC, organism No. 7; details: Klebsiella pneumoniae
How it was run: as §1

[8] = test system: Salmonella typhimurium IID 971; assay: Antibacterial activity, agar-dilution MIC, organism No. 8; details: Salmonella enterica, read-out: Minimum Inhibitory Concentration
How it was run: as §1

Salmonella typhi 901 = assay: Antibacterial activity, agar-dilution MIC, organism No. 9; details: Salmonella enterica, TYPHI, read-out: Minimum Inhibitory Concentration
How it was run: as §1

[9] = test system: Salmonella paratyphi-A 1015; assay: Antibacterial activity, agar-dilution MIC, organism No. 10; details: Salmonella enterica, PARATYPHI, read-out: Minimum Inhibitory Concentration
How it was run: as §1

[10] = test system: Salmonella shottmuelleri 8006; assay: Antibacterial activity, agar-dilution MIC, organism No. 11
How it was run: as §1

[11] = test system: Salmonella enteritidis G 14; assay: Antibacterial activity, agar-dilution MIC, organism No. 12; details: Salmonella enterica, ENTERITIDIS, read-out: Minimum Inhibitory Concentration
How it was run: as §1

[12] = test system: Serratia marcescens IAM 1184; assay: Antibacterial activity, agar-dilution MIC, organism No. 13; details: Serratia marcescens
How it was run: as §1

[13] = test system: Bacillus subtilis ATCC 6633; assay: Antibacterial activity, agar-dilution MIC, organism No. 14; details: Bacillus subtilis
How it was run: as §1

[14] = test system: Pseudomonas aeruginosa IFO 3445; assay: Antibacterial activity, agar-dilution MIC, organism No. 15; details: Pseudomonas aeruginosa
How it was run: as §1

[15] = test system: Pseudomonas aeruginosa NCTC 10490; assay: Antibacterial activity, agar-dilution MIC, organism No. 16; details: Pseudomonas aeruginosa
How it was run: as §1

[16] = test system: Pseudomonas aeruginosa PAO 1; assay: Antibacterial activity, agar-dilution MIC, organism No. 17; details: Pseudomonas aeruginosa
How it was run: as §1

[17] = test system: Proteus morganii IFO 3848; assay: Antibacterial activity, agar-dilution MIC, organism No. 18; details: Morganella morganii
How it was run: as §1

[18] = test system: Proteus mirabilis IFO 3849; assay: Antibacterial activity, agar-dilution MIC, organism No. 19; details: Proteus mirabilis
How it was run: as §1

Proteus vulgaris OX-19 = assay: Antibacterial activity, agar-dilution MIC, organism No. 20; details: Proteus vulgaris
How it was run: as §1

Proteus vulgaris HX-19 = assay: Antibacterial activity, agar-dilution MIC, organism No. 21; details: Proteus vulgaris
How it was run: as §1

[19] = test system: Proteus rettgeri IFO 3850; assay: Antibacterial activity, agar-dilution MIC, organism No. 22; details: Providencia rettgeri
How it was run: as §1

[20] = test system: Enterobacter aerogenes ATCC 13048; assay: Antibacterial activity, agar-dilution MIC, organism No. 23; details: Klebsiella aerogenes
How it was run: as §1

Enterobacter cloacae 963 = assay: Antibacterial activity, agar-dilution MIC, organism No. 24
How it was run: as §1

[21] = test system: Micrococcus luteus ATCC 9341; assay: Antibacterial activity, agar-dilution MIC, organism No. 25; details: Micrococcus luteus
How it was run: as §1

[22] = test system: Mycoplasma pneumoniae IID817; assay: Antimycoplasmal activity, MIC by phenol red colour change, organism No. 28; details: Mycoplasma, IID817; Organism No. 28, PPLO broth + 1% glucose, 37° C.; read-out: Minimum Inhibitory Concentration (MIC)
Protocol: Mycoplasma pneumoniae IID817 was used as the test microorganism in a culture medium prepared by adding 1% of glucose to "PPLO broth (manufactured by Difco Co.) liquid culture medium" at 37° C. with phenol red as an indicator, thereby culturing the test microorganism.

[23] = test system: Candida albicans IAM 4905; assay: Antifungal activity, agar-dilution MIC, organism No. 29; details: Candida albicans
How it was run: as §1

[24] = test system: Aspergillus niger IFO 6342; assay: Antifungal activity, agar-dilution MIC, organism No. 30; details: Aspergillus niger
How it was run: as §1

[25] = test system: Streptococcus pyogenes IFO 3340; assay: Antibacterial activity, agar-dilution MIC, organism No. 26; details: Streptococcus pyogenes, IFO3340, read-out: Minimum Inhibitory Concentration
How it was run: as §1

[26] = test system: Streptococcus faecium IFO 3826; assay: Antibacterial activity, agar-dilution MIC, organism No. 27; details: Enterococcus faecium, IFO3826, read-out: Minimum Inhibitory Concentration
How it was run: as §1

[C-]#[N+]C12CC3(/C=C/C(=O)NC4=NCCS4)OC3C1O2 (stereo not drawn) [compound 66]
MIC ([1]; FDA209PJC1, Organism No. 1, bouillon-agar, read-out: Minimum Inhibitory Concentration): 12.5 µg/mL (≈ 45.1 µM) | MIC ([2]; Organism No. 2, bouillon-agar): 25 µg/mL (≈ 90.2 µM) | MIC ([3]; MS353, Organism No. 3, bouillon-agar, read-out: Minimum Inhibitory Concentration): 12.5 µg/mL (≈ 45.1 µM) | MIC ([4]; Organism No. 4, bouillon-agar): 12.5 µg/mL (≈ 45.1 µM) | MIC ([5]; NIHJJC2, Organism No. 5, bouillon-agar, read-out: Minimum Inhibitory Concentration): 25 µg/mL (≈ 90.2 µM) | MIC ([6]; IAM1264, Organism No. 6, bouillon-agar, read-out: Minimum Inhibitory Concentration): 50 µg/mL (≈ 180 µM) | MIC ([7]; PCI602, Organism No. 7, bouillon-agar, read-out: Minimum Inhibitory Concentration): 6.25 µg/mL (≈ 22.5 µM) | MIC ([8]; Organism No. 8, bouillon-agar): 25 µg/mL (≈ 90.2 µM) | MIC (Salmonella typhi 901): 6.25 µg/mL (≈ 22.5 µM) | MIC [9]: 12.5 µg/mL (≈ 45.1 µM) | MIC ([10]; Salmonella, 8006, Organism No. 11, bouillon-agar, read-out: Minimum Inhibitory Concentration): 12.5 µg/mL (≈ 45.1 µM) | MIC ([11]; Organism No. 12, bouillon-agar): 6.25 µg/mL (≈ 22.5 µM) | MIC ([12]; IAM1184, Organism No. 13, bouillon-agar, read-out: Minimum Inhibitory Concentration): > 200 µg/mL | MIC ([13]; ATCC6633, Organism No. 14, bouillon-agar, read-out: Minimum Inhibitory Concentration): 25 µg/mL (≈ 90.2 µM) | MIC ([14]; IFO3445, Organism No. 15, bouillon-agar, read-out: Minimum Inhibitory Concentration): > 200 µg/mL | MIC ([15]; NCTC10490, Organism No. 16, bouillon-agar, read-out: Minimum Inhibitory Concentration): > 200 µg/mL | MIC ([16]; PAO1, Organism No. 17, bouillon-agar, read-out: Minimum Inhibitory Concentration): > 200 µg/mL | MIC ([17]; IFO3848, Organism No. 18, bouillon-agar, read-out: Minimum Inhibitory Concentration): 3.13 µg/mL (≈ 11.3 µM) | MIC ([18]; IFO3849, Organism No. 19, bouillon-agar, read-out: Minimum Inhibitory Concentration): 200 µg/mL (≈ 721 µM) | MIC (Proteus vulgaris OX-19; OX19, Organism No. 20, bouillon-agar, read-out: Minimum Inhibitory Concentration): 3.13 µg/mL (≈ 11.3 µM) | MIC (Proteus vulgaris HX-19; HX19, Organism No. 21, bouillon-agar, read-out: Minimum Inhibitory Concentration): 3.13 µg/mL (≈ 11.3 µM) | MIC ([19]; IFO3850, Organism No. 22, bouillon-agar, read-out: Minimum Inhibitory Concentration): > 200 µg/mL | MIC ([20]; ATCC13048, Organism No. 23, bouillon-agar, read-out: Minimum Inhibitory Concentration): > 200 µg/mL | MIC (Enterobacter cloacae 963; Enterobacter cloacae, 963, Organism No. 24, bouillon-agar, read-out: Minimum Inhibitory Concentration): > 200 µg/mL | MIC ([21]; ATCC9341, Organism No. 25, bouillon-agar, read-out: Minimum Inhibitory Concentration): 0.1 µg/mL (≈ 0.361 µM) | MIC [22]: < 0.2 µg/mL | MIC ([23]; IAM4905, Organism No. 29, bouillon-agar, read-out: Minimum Inhibitory Concentration): 25 µg/mL (≈ 90.2 µM) | MIC ([24]; IFO6342, Organism No. 30, bouillon-agar, read-out: Minimum Inhibitory Concentration): 50 µg/mL (≈ 180 µM)

[C-]#[N+]C12CC3(/C=C/C(=O)Nc4ccc(OC)cc4)OC3C1O2 (stereo not drawn) [compound 53]
MIC ([1]; FDA209PJC1, read-out: Minimum Inhibitory Concentration): < 0.05 µg/mL | MIC [2]: < 0.05 µg/mL | MIC ([3]; MS353, read-out: Minimum Inhibitory Concentration): < 0.05 µg/mL | MIC [4]: 6.25 µg/mL (≈ 21 µM) | MIC ([5]; NIHJJC2, read-out: Minimum Inhibitory Concentration): 12.5 µg/mL (≈ 41.9 µM) | MIC ([6]; IAM1264, read-out: Minimum Inhibitory Concentration): 3.13 µg/mL (≈ 10.5 µM) | MIC ([7]; PCI602, read-out: Minimum Inhibitory Concentration): < 0.05 µg/mL | MIC [8]: 1.56 µg/mL (≈ 5.23 µM) | MIC (Salmonella typhi 901): 0.39 µg/mL (≈ 1.31 µM) | MIC [9]: < 0.05 µg/mL | MIC ([10]; Salmonella, 8006, read-out: Minimum Inhibitory Concentration): < 0.05 µg/mL | MIC [11]: 0.39 µg/mL (≈ 1.31 µM) | MIC ([12]; IAM1184, read-out: Minimum Inhibitory Concentration): 25 µg/mL (≈ 83.8 µM) | MIC ([13]; ATCC6633, read-out: Minimum Inhibitory Concentration): 6.25 µg/mL (≈ 21 µM) | MIC ([14]; IFO3445, read-out: Minimum Inhibitory Concentration): > 200 µg/mL | MIC ([15]; NCTC10490, read-out: Minimum Inhibitory Concentration): > 200 µg/mL | MIC ([16]; PAO1, read-out: Minimum Inhibitory Concentration): > 200 µg/mL | MIC ([17]; IFO3848, read-out: Minimum Inhibitory Concentration): < 0.05 µg/mL | MIC ([18]; IFO3849, read-out: Minimum Inhibitory Concentration): 3.13 µg/mL (≈ 10.5 µM) | MIC (Proteus vulgaris OX-19; OX19, read-out: Minimum Inhibitory Concentration): < 0.05 µg/mL | MIC (Proteus vulgaris HX-19; HX19, read-out: Minimum Inhibitory Concentration): < 0.05 µg/mL | MIC ([19]; IFO3850, read-out: Minimum Inhibitory Concentration): 0.78 µg/mL (≈ 2.61 µM) | MIC ([20]; ATCC13048, read-out: Minimum Inhibitory Concentration): > 200 µg/mL | MIC (Enterobacter cloacae 963; Enterobacter cloacae, 963, read-out: Minimum Inhibitory Concentration): 50 µg/mL (≈ 168 µM) | MIC ([21]; ATCC9341, read-out: Minimum Inhibitory Concentration): < 0.05 µg/mL | MIC [25]: 0.39 µg/mL (≈ 1.31 µM) | MIC [26]: 6.25 µg/mL (≈ 21 µM) | MIC ([23]; IAM4905, read-out: Minimum Inhibitory Concentration): 0.79 µg/mL (≈ 2.65 µM) | MIC ([24]; IFO6342, read-out: Minimum Inhibitory Concentration): 1.56 µg/mL (≈ 5.23 µM)
